US7164002B2, “FVIIa antagonists” (Genentech, Inc., priority 2002, dated 2007)

How the values were obtained:
FVIIa = target: T1, FVIIa (Homo sapiens, UniProt P08709); details: pH 7.2; read-out: binding constant Kd to FVIIa; cited from earlier work
T1 sequence (P08709 213-466 limits assumed): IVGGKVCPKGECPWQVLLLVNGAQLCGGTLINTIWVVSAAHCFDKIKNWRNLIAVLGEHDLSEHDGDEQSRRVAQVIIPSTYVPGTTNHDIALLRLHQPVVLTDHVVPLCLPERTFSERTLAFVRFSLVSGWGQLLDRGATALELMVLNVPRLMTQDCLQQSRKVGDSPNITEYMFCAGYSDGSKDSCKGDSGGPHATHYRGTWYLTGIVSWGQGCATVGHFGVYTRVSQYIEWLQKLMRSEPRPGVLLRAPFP
T1 sequence (P08709 61-212 limits assumed): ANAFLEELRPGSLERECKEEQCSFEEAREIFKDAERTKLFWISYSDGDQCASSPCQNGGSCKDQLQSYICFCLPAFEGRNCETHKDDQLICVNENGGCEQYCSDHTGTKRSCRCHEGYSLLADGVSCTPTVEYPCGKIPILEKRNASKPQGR

[1] = test system: citrated pooled normal human plasma; experiment: Prothrombin time (PT) clotting assay initiated by TF and Ca2+; format: biochemical; details: Innovin
Description: The prothrombin time (PT) assay was performed in citrated pooled normal human plasma as described previously (Dennis, M. S., et al., (2000) Nature, 404: 465–470). Clotting times were determined using an ACL 300 Coagulation Analyzer (Coulter Corp., Miami, Fla.) using Innovin (human relipidated TF and Ca2+) from Dade International Inc. to initiate the assay.

TF-FVIIa [2] = target: T2, TF-FVIIa (Homo sapiens, UniProt P08709); details: literature, cited from earlier work; for maximal extent of inhibition of the amidolytic activity: saturating concentrations of peptide
Target sequence in this assay (P13726 33-251 partner limits assumed, one chain of several): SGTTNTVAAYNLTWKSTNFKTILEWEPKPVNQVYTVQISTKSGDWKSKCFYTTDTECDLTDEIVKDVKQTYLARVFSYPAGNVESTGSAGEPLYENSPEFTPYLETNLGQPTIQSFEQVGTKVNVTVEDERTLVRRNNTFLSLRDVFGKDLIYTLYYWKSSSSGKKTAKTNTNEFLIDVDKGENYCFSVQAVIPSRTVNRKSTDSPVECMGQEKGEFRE

TF-FVIIa [3] = target: T2, TF-FVIIa; details: literature, cited from earlier work; for maximal inhibition of FX activation: saturating concentrations of peptide
Target sequence in this assay (P13726 33-275 partner limits assumed, one chain of several): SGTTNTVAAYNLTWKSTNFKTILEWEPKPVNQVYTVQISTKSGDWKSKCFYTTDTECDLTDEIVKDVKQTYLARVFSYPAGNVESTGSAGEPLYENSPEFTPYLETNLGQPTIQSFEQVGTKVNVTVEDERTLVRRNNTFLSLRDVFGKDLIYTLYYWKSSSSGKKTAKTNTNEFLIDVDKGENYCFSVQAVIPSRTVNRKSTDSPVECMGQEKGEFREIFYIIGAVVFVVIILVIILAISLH

TF-FVIIa [4] = target: T2, TF-FVIIa; experiment: Inhibition of TF-FVIIa catalyzed activation of FX; format: biochemical; details: saturating peptide
Target sequence in this assay (P13726 33-275 partner limits assumed, one chain of several): as above
Description: Inhibition of FX activation by TF-VIIa was determined with 300 pM relipidated TF1-243, 20 pM FVIIa , and 165 nM FX at 25° C. as a function of peptide concentration essentially as described (Dennis, M. S., et al., (2000) Nature, 404: 465–470; Kelley, R. F., et al., (1997) Blood, 89: 3219–3227). TF was incorporated into phospholipid vesicles and quantified as previously described (Kelley, R. F., et al., (1997) Blood, 89: 3219–3227). The linear rates of FXa generation can be expressed as mOD405/min/min or as fractional activities (vi/v0).

Substance | Kd (FVIIa) [nM] | fold prolongation of the clotting time [1] [fold] | inhibition of amidolytic activity (in words) (TF-FVIIa [2]) | maximal extent of inhibition of the amidolytic activity (TF-FVIIa [2]) [%] | IC50 for inhibition of activation of FX to FXa by TF-FVIIa (TF-FVIIa [3]) | maximal inhibition of FX activation (TF-FVIIa [3]) [%] | extent of inhibition of FX activation upon saturation (TF-FVIIa [4]) [%]
EEWEVLCWTWETCER [Peptide A-183] | 2.8 | 1.6 | potent but incomplete inhibition | 32 | nanomolar range | 78 | 
Z-GGSGGDDDDK-EEWEVLCWTWETCER [Z-A-183] |  |  |  |  |  |  | 80
EEWEVACWTWETCER [Peptide E-76] |  |  |  | 50 | nanomolar range | 90 | 
